Common to all, as to test: DSF 100 kinase selectivity screen;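 also: compound tested at 20 µM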
Holding throughout (assay type): binding

Assay [1] has as its target T1, ~100 representative kinases (Homo sapiens, UniProt P49761).
T1 construct: Recombinant protein kinase domains with a concentration of 2 μM
The settings on record: Protein CLK3; average of three replicates. Here is the method:
(§1) Recombinant protein kinase domains with a concentration of 2 μM were mixed with a 20 μM compound solution in dimethyl sulfoxide (DMSO), 20 mM Hepes (pH 7.5), and 500 mM NaCl. SYPRO Orange (5000×, Invitrogen) was added as a fluorescence probe (1μl/ml). Subsequently, temperature-dependent protein unfolding profiles were measured using the QuantStudio 5 realtime PCR machine (Thermo Fisher Scientific, Waltham, MA, USA). […] The temperature was raised with a step rate of 3°C/min. […] Differences in melting temperature are given as ΔTm values in degrees Celsius. […]

Assay [2] concerns the target T2, ~100 representative kinases (Homo sapiens, UniProt Q5VT25).
T2 construct: Recombinant protein kinase domains with a concentration of 2 μM
The settings on record: Protein CDC42BPA; average of three replicates. Here is the method: as §1

In assay [3] the target is T3, ~100 representative kinases (Homo sapiens, UniProt Q9UEE5).
T3 construct: Recombinant protein kinase domains with a concentration of 2 μM
T3 sequence (Q9UEE5 1-414): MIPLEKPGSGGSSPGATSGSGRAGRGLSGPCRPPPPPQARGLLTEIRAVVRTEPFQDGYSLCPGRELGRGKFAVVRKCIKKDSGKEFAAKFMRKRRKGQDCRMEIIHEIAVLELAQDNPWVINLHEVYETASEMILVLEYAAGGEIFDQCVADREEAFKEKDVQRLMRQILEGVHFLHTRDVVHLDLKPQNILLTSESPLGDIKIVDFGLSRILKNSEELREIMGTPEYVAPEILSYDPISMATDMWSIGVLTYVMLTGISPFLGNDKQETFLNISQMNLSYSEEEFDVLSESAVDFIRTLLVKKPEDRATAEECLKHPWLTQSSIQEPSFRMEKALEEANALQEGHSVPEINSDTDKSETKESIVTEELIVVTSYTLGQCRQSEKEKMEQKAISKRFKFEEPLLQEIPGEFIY
The following applies: Protein STK17A; DSF; average of three replicates. Here is the method:
as §1

Assay [4] has as its target T4, ~100 representative kinases (Homo sapiens, UniProt P33981).
T4 construct: Recombinant protein kinase domains with a concentration of 2 μM
T4 sequence (P33981 1-857): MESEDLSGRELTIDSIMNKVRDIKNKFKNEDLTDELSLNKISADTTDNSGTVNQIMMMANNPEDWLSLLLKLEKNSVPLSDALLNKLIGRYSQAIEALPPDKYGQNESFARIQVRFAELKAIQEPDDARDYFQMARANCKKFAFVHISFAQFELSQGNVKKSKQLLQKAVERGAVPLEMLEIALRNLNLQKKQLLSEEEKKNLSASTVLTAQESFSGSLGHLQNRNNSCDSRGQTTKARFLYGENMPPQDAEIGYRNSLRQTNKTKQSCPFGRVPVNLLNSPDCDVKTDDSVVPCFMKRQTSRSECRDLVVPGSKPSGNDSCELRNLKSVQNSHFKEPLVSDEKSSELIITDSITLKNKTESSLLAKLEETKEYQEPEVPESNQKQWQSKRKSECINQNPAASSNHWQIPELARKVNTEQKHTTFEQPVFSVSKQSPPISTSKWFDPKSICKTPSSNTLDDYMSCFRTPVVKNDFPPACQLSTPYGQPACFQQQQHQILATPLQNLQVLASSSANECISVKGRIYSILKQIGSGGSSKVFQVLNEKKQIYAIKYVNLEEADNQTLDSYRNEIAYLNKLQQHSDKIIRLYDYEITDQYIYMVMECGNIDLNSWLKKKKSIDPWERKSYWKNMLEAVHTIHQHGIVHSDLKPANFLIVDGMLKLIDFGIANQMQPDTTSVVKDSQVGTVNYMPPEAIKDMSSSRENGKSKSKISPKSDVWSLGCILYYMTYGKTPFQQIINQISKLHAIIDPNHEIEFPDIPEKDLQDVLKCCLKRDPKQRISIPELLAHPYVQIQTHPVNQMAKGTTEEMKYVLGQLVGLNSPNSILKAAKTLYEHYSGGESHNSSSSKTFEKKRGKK
The settings on record: Protein TTK; DSF; average of three replicates. As to the method: as §1

The target in assay [5] is T5, ~100 representative kinases (Homo sapiens, UniProt P53355).
T5 construct: Recombinant protein kinase domains with a concentration of 2 μM
T5 sequence (P53355 whole entry, the tested form may be a part): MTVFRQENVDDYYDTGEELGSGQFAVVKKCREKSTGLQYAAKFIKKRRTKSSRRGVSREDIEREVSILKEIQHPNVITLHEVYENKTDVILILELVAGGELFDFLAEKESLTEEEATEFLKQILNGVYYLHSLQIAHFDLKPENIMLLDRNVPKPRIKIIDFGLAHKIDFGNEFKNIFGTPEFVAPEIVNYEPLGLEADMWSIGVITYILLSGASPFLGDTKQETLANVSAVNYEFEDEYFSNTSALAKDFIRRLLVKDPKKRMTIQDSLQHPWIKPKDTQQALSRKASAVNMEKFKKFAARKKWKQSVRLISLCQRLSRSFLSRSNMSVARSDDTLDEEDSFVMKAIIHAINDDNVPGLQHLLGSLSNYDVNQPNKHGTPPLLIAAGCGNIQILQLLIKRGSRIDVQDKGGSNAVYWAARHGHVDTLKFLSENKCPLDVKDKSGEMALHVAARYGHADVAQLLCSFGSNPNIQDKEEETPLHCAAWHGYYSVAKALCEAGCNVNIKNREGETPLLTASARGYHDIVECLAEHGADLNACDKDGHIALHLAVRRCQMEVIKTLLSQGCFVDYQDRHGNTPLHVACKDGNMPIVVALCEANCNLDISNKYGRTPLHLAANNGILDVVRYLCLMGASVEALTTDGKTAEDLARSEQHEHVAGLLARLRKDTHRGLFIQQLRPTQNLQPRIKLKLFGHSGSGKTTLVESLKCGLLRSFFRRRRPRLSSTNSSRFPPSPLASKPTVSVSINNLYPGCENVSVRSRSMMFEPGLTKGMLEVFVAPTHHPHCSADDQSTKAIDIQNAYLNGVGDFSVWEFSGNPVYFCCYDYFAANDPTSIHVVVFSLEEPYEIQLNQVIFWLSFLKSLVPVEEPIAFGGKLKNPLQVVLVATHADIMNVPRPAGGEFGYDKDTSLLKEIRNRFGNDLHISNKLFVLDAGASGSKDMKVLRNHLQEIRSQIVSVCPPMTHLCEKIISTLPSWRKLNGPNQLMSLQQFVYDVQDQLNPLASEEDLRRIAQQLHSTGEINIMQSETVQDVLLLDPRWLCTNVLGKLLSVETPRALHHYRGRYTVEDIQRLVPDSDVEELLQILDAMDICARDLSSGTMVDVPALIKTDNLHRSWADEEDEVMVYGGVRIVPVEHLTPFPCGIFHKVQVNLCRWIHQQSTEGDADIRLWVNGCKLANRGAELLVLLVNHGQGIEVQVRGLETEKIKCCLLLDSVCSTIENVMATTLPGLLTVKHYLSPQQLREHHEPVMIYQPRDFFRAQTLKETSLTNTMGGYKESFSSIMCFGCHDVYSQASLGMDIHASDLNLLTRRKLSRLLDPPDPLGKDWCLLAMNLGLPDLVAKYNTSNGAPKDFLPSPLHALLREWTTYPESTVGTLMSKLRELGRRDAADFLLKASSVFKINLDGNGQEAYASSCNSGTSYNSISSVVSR
The settings on record: Protein DAPK1; average of three replicates. As to the method: as §1

The target in assay [6] is T6, ~100 representative kinases (Homo sapiens, UniProt P45985).
T6 construct: Recombinant protein kinase domains with a concentration of 2 μM
T6 sequence (P45985 1-399): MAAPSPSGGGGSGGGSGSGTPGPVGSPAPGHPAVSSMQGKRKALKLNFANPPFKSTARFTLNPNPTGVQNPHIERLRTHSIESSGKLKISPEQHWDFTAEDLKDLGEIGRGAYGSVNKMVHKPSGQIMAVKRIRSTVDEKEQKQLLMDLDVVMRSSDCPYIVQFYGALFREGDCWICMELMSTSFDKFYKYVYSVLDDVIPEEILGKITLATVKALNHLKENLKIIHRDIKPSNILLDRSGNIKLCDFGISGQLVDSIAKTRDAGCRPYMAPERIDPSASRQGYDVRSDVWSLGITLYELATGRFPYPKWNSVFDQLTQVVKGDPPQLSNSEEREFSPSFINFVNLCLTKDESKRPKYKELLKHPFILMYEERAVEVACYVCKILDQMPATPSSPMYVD
The following applies: protein MAP2K4; average of three replicates. Here is the method: as §1

In assay [7] the target is T7, ~100 representative kinases (Homo sapiens, UniProt O14965).
T7 construct: Recombinant protein kinase domains with a concentration of 2 μM
T7 sequence (O14965 1-403): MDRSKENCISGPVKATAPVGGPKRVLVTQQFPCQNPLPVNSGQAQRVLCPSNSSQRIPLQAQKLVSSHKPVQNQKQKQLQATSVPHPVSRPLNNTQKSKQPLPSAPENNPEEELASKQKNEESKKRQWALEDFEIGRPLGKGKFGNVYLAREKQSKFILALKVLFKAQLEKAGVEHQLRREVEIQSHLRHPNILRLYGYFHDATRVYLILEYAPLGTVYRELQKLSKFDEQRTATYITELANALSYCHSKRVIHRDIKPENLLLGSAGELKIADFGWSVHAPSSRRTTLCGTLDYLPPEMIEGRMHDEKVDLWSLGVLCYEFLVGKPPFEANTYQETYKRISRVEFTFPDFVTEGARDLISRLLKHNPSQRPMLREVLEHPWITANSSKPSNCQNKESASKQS
The settings on record: Protein STK6; DSF; average of three replicates. Here is the method: as §1

T2 sequence (Q5VT25 whole entry, the tested form may be a part): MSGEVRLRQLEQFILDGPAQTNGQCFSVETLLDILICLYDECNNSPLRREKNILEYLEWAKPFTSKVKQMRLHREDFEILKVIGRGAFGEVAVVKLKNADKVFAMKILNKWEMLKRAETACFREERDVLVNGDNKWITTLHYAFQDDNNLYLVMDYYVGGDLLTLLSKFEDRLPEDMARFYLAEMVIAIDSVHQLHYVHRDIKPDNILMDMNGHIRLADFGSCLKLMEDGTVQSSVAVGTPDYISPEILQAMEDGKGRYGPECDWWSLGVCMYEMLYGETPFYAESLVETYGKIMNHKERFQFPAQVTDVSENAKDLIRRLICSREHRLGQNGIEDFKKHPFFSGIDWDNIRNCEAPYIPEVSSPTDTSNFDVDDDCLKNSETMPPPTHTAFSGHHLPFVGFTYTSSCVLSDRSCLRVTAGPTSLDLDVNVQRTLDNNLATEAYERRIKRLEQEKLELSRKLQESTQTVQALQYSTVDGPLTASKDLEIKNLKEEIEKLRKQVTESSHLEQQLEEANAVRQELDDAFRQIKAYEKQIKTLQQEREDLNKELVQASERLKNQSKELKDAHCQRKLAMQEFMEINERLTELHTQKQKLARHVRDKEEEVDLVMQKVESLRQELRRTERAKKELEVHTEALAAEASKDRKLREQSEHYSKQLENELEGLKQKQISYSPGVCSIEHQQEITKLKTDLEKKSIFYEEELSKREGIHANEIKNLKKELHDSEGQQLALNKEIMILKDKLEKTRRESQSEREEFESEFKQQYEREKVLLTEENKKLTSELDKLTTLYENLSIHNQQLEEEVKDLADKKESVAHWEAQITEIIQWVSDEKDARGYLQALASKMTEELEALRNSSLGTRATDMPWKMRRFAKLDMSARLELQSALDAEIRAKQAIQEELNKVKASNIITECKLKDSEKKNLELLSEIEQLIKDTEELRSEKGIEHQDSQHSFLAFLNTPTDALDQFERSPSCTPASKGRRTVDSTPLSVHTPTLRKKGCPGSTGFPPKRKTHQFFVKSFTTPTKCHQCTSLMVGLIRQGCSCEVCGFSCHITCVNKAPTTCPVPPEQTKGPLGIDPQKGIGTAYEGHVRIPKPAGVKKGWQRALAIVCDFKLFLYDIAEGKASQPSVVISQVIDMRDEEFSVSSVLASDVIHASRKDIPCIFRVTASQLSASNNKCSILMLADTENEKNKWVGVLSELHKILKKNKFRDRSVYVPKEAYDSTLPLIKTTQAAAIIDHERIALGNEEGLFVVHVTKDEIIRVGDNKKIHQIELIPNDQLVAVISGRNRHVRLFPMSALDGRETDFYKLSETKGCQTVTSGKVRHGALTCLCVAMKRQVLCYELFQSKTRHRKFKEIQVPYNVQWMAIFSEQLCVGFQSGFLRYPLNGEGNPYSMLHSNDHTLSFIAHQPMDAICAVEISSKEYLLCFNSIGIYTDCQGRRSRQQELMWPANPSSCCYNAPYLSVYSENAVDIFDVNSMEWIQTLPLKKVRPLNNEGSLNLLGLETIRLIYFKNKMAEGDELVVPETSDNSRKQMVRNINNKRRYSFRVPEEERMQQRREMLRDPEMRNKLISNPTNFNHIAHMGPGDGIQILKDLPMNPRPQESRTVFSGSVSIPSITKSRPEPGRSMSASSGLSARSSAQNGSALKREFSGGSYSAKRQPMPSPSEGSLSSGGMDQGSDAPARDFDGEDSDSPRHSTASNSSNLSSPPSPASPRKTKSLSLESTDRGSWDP
T1 sequence (P49761 whole entry, the tested form may be a part): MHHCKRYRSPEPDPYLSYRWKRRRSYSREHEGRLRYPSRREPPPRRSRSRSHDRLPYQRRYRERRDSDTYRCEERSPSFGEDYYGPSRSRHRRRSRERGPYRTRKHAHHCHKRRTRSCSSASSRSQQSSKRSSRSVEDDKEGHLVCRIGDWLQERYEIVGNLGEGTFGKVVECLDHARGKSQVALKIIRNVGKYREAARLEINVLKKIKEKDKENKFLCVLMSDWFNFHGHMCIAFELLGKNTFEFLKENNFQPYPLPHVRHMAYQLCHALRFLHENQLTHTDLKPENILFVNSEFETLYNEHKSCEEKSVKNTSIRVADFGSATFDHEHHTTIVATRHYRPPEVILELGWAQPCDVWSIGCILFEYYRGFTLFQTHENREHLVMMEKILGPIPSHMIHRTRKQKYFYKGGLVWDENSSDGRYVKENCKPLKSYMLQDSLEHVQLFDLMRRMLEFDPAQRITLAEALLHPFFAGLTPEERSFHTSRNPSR

On to `Cc1ccc(C(=O)Nc2ccc(CN3CCN(C)CC3)c(C(F)(F)F)c2)cc1C#Cc1c[nH]c2ncnc(N3CCOCC3)c12` [Compound 1], for which the dTm is 4.76 K in assay [1]; -1.51 K in assay [2]; 2.74 K in assay [3]; 0.00 K in assay [4]; 0.30 K in assay [5]; 7.64 K in assay [6]. For the same compound, in assay [7], the dTm worked out at 12.62 K.
In the case of `O=C(Nc1ccc(F)cc1)C1(C(=O)Nc2cccc(-c3c[nH]c4ncnc(N5CCOCC5)c34)c2)CC1` [Compound 2], the dTm in assay [1] is 3.15 K; in assay [2], -0.78 K; in assay [3], 0.36 K; in assay [4] it was 6.94 K; in assay [5], -0.33 K; in assay [6] it was 4.96 K. Further, the dTm in assay [7] is reported as 6.07 K.
Turning to `O=C(Nc1cccc(-c2c[nH]c3ncnc(N4CCOCC4)c23)c1)c1cccn(-c2ccc(F)cc2)c1=O` [Compound 4], the dTm in assay [1] was 2.86 K; in assay [2] it was -0.81 K; in assay [3], -0.07 K; in assay [4], 3.00 K; in assay [5], -0.50 K; in assay [6], 6.40 K. The compound also returned a dTm in assay [7] of 7.18 K.
For `Cc1cc(NC(=O)C2(C(=O)Nc3ccc(F)cc3)CC2)cc(-c2c[nH]c3ncnc(N4CCOCC4)c23)c1` [Compound 6], the dTm in assay [1] is recorded as 0.98 K; in assay [2] it was -0.90 K; in assay [3], 0.40 K; in assay [4], 5.72 K; in assay [5] it was -0.31 K; in assay [6], 3.77 K. The same compound yielded a dTm in assay [7] of 6.69 K.
Consider `O=C(Nc1cccc(-c2c[nH]c3ncnc(N4CCOCC4)c23)c1)C1(C(=O)Nc2cccc3c2CCC3)CC1` [Compound 11], for which the dTm is on record as 1.62 K in assay [1]; -1.26 K in assay [2]; 1.27 K in assay [3]; 6.04 K in assay [4]; -0.99 K in assay [5]; 5.91 K in assay [6]. The dTm in assay [7] is 4.34 K.
On to `O=C(Nc1ccccc1)C1(C(=O)Nc2cccc(-c3c[nH]c4ncnc(N5CCOCC5)c34)c2)CC1` [Compound 12], for which the dTm in assay [1] is given as 2.26 K; in assay [2], -0.16 K; in assay [3] it was 0.26 K; in assay [4], 7.12 K; in assay [5], 0.18 K; in assay [6] it was 5.86 K. Moreover, the dTm in assay [7] worked out at 6.39 K.
As for `O=C(Nc1ccc(Cl)cc1)C1(C(=O)Nc2cccc(-c3c[nH]c4ncnc(N5CCOCC5)c34)c2)CC1` [Compound 13], the dTm was 4.87 K in assay [1]; -0.08 K in assay [2]; 1.64 K in assay [3]; 6.50 K in assay [4]; 0.12 K in assay [5]; 6.61 K in assay [6]. The compound also gave a dTm in assay [7] of 9.16 K.
Turning to `Cc1ccc(NC(=O)C2(C(=O)Nc3cccc(-c4c[nH]c5ncnc(N6CCOCC6)c45)c3)CC2)cc1` [Compound 14], the dTm in assay [1] is listed as 2.40 K; in assay [2], -1.21 K; in assay [3], -0.61 K; in assay [4], 4.57 K; in assay [5], -0.92 K; in assay [6], 5.95 K. Further, the dTm in assay [7] is 7.04 K.
Consider `CCc1ccc(NC(=O)C2(C(=O)Nc3cccc(-c4c[nH]c5ncnc(N6CCOCC6)c45)c3)CC2)cc1` [Compound 15], for which the dTm in assay [1] was 2.88 K; in assay [2], -0.98 K; in assay [3], -0.28 K; in assay [4], 6.77 K; in assay [5] it was -0.75 K; in assay [6], 6.81 K. Also, in assay [7], the dTm was 9.54 K.
Take `COc1ccc(NC(=O)C2(C(=O)Nc3cccc(-c4c[nH]c5ncnc(N6CCOCC6)c45)c3)CC2)cc1` [Compound 16]: the dTm in assay [1] is listed as 0.51 K; in assay [2] it was -1.10 K; in assay [3], -0.48 K; in assay [4], 3.48 K; in assay [5] it was -0.99 K; in assay [6], 3.98 K. The dTm in assay [7] is given as 5.48 K.
Regarding `O=C(Nc1cccc(-c2c[nH]c3ncnc(N4CCOCC4)c23)c1)C1(C(=O)Nc2ccc(F)c(F)c2)CC1` [Compound 17], the dTm is 3.44 K in assay [1]; -0.72 K in assay [2]; 0.99 K in assay [3]; 6.18 K in assay [4]; -0.77 K in assay [5]; 5.80 K in assay [6]. Further, in assay [7], the dTm stood at 7.27 K.
For `O=C(Nc1cccc(-c2c[nH]c3ncnc(N4CCOCC4)c23)c1)C1(C(=O)Nc2ccc(F)c(Cl)c2)CC1` [Compound 18], the dTm in assay [1] is on record as 4.42 K; in assay [2], -0.25 K; in assay [3] it was 2.92 K; in assay [4] it was 8.02 K; in assay [5] it was -0.23 K; in assay [6], 6.47 K. For the same compound, the dTm in assay [7] is given as 8.24 K.
As for `COc1cc2c(Oc3ccc(NC(=O)C4(C(=O)Nc5ccc(F)cc5)CC4)cc3F)ccnc2cc1OCCCN1CCOCC1` [Foretinib, reference compound], the dTm in assay [1] is 3.35 K; in assay [2], 0.32 K; in assay [3], -0.14 K; in assay [4], 2.21 K; in assay [5], -0.15 K; in assay [6] it was 2.73 K.
`Cc1ccc(C(=O)Nc2ccc(CN3CCN(C)CC3)c(C(F)(F)F)c2)cc1C#Cc1cnc2cccnn12` [Ponatinib, reference compound]: the dTm is recorded as -1.37 K in assay [2] and 1.61 K in assay [7].
As to `CN[C@@H]1C[C@H]2O[C@@](C)([C@@H]1OC)n1c3ccccc3c3c4c(c5c6ccccc6n2c5c31)C(=O)NC4` [Staurosporine], the results for the dTm in assay [2], in assay [5] and in assay [7] were 3.20 K, 9.84 K and 20.49 K, respectively.

For the origin of these results see paper PMC12136037, “Type II kinase inhibitors that target Parkinson’s disease–associated LRRK2” (Science Advances, 2025).
